In brackets after ≈: the same amount, converted by molar mass.
Legend:
Assay type in all cases: cell-based
human lung cancer PC13 = assay: Cancer cell proliferation inhibition (sulforhodamine B staining), PC13; conditions: PC-13, 72 hours culture with test solution, RPMI-160 medium containing 10% fetal bovine serum
Description: (§1) A test compound (20 mg) was dissolved in dimethyl sulfoxide (1 ml) and successively diluted into test solutions.
(§2) DMEM medium containing 10% fetal bovine serum was used for a human gastric cancer cell MKN45 and a human colon cancer cell LS180, and […] medium containing 10% fetal bovine serum was used for human lung cancer PC13.
(§3) 100 µl portions of the cell-culturing medium containing 3×10^3 cancer cells were put in a 96-hole microplate, culture was carried out under 5% CO2 at 37°C for 24 hours, 11 µl portions of the above test solution were added, the mixtures were subjected to culture under 5% CO2 at 37°C for further 72 hours, and then the cells were fixated with 50% trichloroacetic acid and stained with 0.4% sulforhodamine B. The dye was extracted from the stained cells with 10 mM Tris solution, and absorbance at 540 nm was measured and compared with that in the control group. […]

[1] = test system: human colon cancer cell LS180; assay: Cancer cell proliferation inhibition (sulforhodamine B staining), LS180; conditions: 72 hours culture with test solution, DMEM medium containing 10% fetal bovine serum
Description: as §1, §2, §3

[2] = test system: human gastric cancer cell MKN45; assay: Cancer cell proliferation inhibition (sulforhodamine B staining), MKN45; conditions: MKN-45, 72 hours culture with test solution, DMEM medium containing 10% fetal bovine serum
Description: as §1, §2, §3

Row | IC50 (human lung cancer PC13) [µg/mL] | IC50 [1] [µg/mL] | IC50 [2] [µg/mL] | SMILES
1 | 12.5 (≈ 35 µM) | > 50 | > 50 | O=C1NC(=O)c2c1c1c3cccc(O)c3[nH]c1c1[nH]c3c(O)cccc3c21 [BE-13793C, 12,13-dihydro-1,11-dihydroxy-5H-indolo[2,3-a]pyrrolo[3,4-c]-carbazole-5,7(6H)-dione]
2 | 1.7 (≈ 3.27 µM) | 1.65 (≈ 3.18 µM) | 0.28 (≈ 0.539 µM) | O=C1NC(=O)c2c1c1c3cccc(O)c3[nH]c1c1c2c2cccc(O)c2n1[C@@H]1O[C@H](CO)[C@@H](O)[C@H](O)[C@H]1O [Example 1, 12,13-dihydro-1,11-dihydroxy-13-(β-D-glucopyranosyl)-5H-indolo[2,3-a]pyrrolo[3,4-c]carbazole-5,7(6H)-dione]
